In patent US7829280B2, “Process for reducing interferences in luciferase enzyme assays” (LuminUltra Technologies Ltd., priority 2007, dated 2010):

What was measured:
[1] = molecular target: T1, firefly luciferase (Photinus pyralis, UniProt P08659); assay: Combined treatment with soluble (β-cyclodextrin) and insoluble (IRC-748) neutralizers of ADBAC inhibition of firefly luciferase; format: biochemical; details: β-cyclodextrin 3,750 mg/L, resin 1 part per 3 parts
Protocol: Four dilution series were prepared from this stock solution. One series was diluted only in a phosphate buffer. Another identical series was prepared in the phosphate buffer but was pre-treated with IRC-748 chelating resin (3 parts solution treated with one part resin) prior to assaying for ATP. […] The fourth series was prepared in the same way as the third series, except that each member of the series was pre-treated with IRC-748 chelating resin (3 parts solution treated with one part resin) prior to assaying for ATP. All solutions were assayed for ATP by mixing 100 microliters of solution with 100 microliters of luciferase reagent and measuring the light produced in a Kikkoman luminometer.
The experiment described in Example 5 compares the ability of a soluble agent (β-cyclodextrin) and an insoluble agent (chelating resin, IRC-748) and their combination to neutralize the inhibition of the bioluminescent reaction catalyzed by firefly luciferase.
A concentrate of cyclodextrin was added to the ATP solutions in some of the tests to maintain concentration of 3,750 mg/L through the dilution series.

[2] = molecular target: T1, firefly luciferase; assay: Firefly luciferase assay of ATP standard solution containing ADBAC, with and without chelating resin pre-treatment; format: biochemical; details: phosphate buffer ATP solution containing 1000 mg/L ADBAC
Protocol: The light produced in this reaction was measured in a luminometer (Kikkoman C-100 Lumitester). Several dilutions of this ATP solution were also prepared in phosphate buffer and tested. In addition, a 3 mL portion of this solution was mixed with 1 mL of a chelating resin (IRC748, Rohm and Haas Company) and similarly diluted in phosphate buffer, then assayed for ATP.

[3] = molecular target: T1, firefly luciferase; assay: Firefly luciferase assay for ATP in ADBAC extract of wastewater effluent, with and without chelating resin; format: biochemical
Protocol: The ATP released by this process was measured in a Kikkoman luminometer by mixing 100 microliters of the mixture and combining it with 100 microliters of a luciferase assay mixture. Several dilutions of this ATP extract were also prepared in phosphate buffer and tested. In addition, a 3 mL portion of the ATP extract was mixed with 1 mL of a chelating resin (IRC748, Rohm and Haas Company) and similarly diluted in phosphate buffer, then assayed for ATP.
Further dilutions were made in a phosphate buffer. The chelating resin was IRC-748. The resin treatment consisted of mixing 1 mL of resin with 3 mL of extract, then allowing the resin beads to settle before ATP analysis.

[4] = molecular target: T2, luciferase (Photinus pyralis, UniProt P08659); assay: Luciferase assay for ATP in ADBAC extract of wastewater effluent (different date), 2 mL resin or two 1 mL portions; format: biochemical, firefly; details: no extract pre-treatment
T2 sequence (P08659 whole entry): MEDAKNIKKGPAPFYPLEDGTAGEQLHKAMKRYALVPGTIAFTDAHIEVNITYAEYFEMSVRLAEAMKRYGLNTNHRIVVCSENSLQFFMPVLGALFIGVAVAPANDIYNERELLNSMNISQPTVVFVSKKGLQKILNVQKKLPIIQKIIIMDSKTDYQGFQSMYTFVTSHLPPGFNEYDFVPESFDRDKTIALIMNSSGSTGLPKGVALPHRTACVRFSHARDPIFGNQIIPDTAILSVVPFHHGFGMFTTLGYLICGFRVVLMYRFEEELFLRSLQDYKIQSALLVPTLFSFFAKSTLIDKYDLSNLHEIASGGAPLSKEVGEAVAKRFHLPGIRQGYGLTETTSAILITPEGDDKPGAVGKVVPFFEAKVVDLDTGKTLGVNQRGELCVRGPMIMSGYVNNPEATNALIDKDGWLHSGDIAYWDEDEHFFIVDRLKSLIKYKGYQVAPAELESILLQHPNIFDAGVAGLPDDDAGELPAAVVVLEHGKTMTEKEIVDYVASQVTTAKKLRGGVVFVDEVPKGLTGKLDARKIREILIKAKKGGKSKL
Protocol: Further dilutions were made in a phosphate buffer. The chelating resin was IRC-748. The resin treatment consisted of mixing 2 mL of resin with 3 mL of extract, then allowing the resin beads to settle before ATP analysis. In a variation of this analysis, 3 mL of sample were treated with 1 mL of resin and the supernatant of this treatment was treated to a second 1 mL portion of resin prior to ATP analysis.

[5] = molecular target: T2, luciferase; assay: Luciferase activity in ATP standard spiked with ADBAC after treatment with various resins; format: biochemical, firefly; details: 10 ng/mL ATP
Protocol: The experiment was conducted in the same format as described for the first experiment by testing an ATP standard solution spiked with ADBAC. The dilution required to remove inhibition following treatment with an ion-exchange resin was the same as the test condition in which no resin treatment was applied. In contrast, a ¼ fold dilution removed almost all of the inhibition in the solution that had been pre-treated with the chelating resin. Again, the luciferase activity in an undiluted solution treated with the chelating resin provided a response many times greater than untreated solution or solution treated with ion exchange resins.
It should be noted that Table 4 is constructed from results of 2 different experiments. In order to facilitate comparison, the results are expressed as enzyme activity instead of instrument reading. Luciferase activity was calculated by dividing the RLU of each test condition by the RLU of an uninhibited reaction and expressing the results as a percentage.

T1 sequence (P08659 whole entry): as above

How did the RLU ([1]; dilution 1/16 of 7200 mg/L ADBAC, 1 ng ATP per mL stock) turn out when OC[C@H]1O[C@@H]2O[C@H]3[C@H](O)[C@@H](O)[C@@H](O[C@H]4[C@H](O)[C@@H](O)[C@@H](O[C@H]5[C@H](O)[C@@H](O)[C@@H](O[C@H]6[C@H](O)[C@@H](O)[C@@H](O[C@H]7[C@H](O)[C@@H](O)[C@@H](O[C@H]8[C@H](O)[C@@H](O)[C@@H](O[C@H]1[C@H](O)[C@H]2O)O[C@@H]8CO)O[C@@H]7CO)O[C@@H]6CO)O[C@@H]5CO)O[C@@H]4CO)O[C@@H]3CO [β-cyclodextrin] was run?
The RLU was 606 RLU.

What about the RLU ([1]; dilution ¼ of 7200 mg/L ADBAC, 1 ng ATP per mL stock) of the same compound?
Its RLU is 96 RLU.

What about the RLU ([1]; dilution ½ of 7200 mg/L ADBAC, 1 ng ATP per mL stock (3600 mg/L ADBAC, 0.5 ng/mL ATP)) of the same compound?
Its RLU is 3 RLU.

What about the RLU ([1]; dilution ⅛ of 7200 mg/L ADBAC, 1 ng ATP per mL stock) of the same compound?
The RLU was 1227 RLU.

For “alkyl dimethybenzyl ammonium chloride [ADBAC]”, which “dilution factor needed to overcome luciferase inhibition” value [2] is on record?
The value was 8.

And the RLU ([3]; dilution of ADBAC (1000 mg/L) in ATP extract 1/16, resin 1 mL per 3 mL extract)?
Its RLU is 4,628 RLU.

What about the RLU ([3]; dilution of ADBAC (1000 mg/L) in ATP extract 1/32, resin 1 mL per 3 mL extract) of the same compound?
Its RLU is 2,401 RLU.

And the RLU ([3]; dilution of ADBAC (1000 mg/L) in ATP extract ¼, resin 1 mL per 3 mL extract)?
Its RLU is 4,658 RLU.

What about the RLU ([3]; dilution of ADBAC (1000 mg/L) in ATP extract ½, resin 1 mL per 3 mL extract) of the same compound?
The RLU was 1,489 RLU.

What about the RLU ([4]; dilution of ADBAC in ATP extract 1/16) of the same compound?
Its RLU is 3100 RLU.

What about the RLU ([4]; dilution of ADBAC in ATP extract 1/32) of the same compound?
The RLU was 1551 RLU.

And the RLU ([4]; dilution of ADBAC in ATP extract ¼)?
The RLU was 7,310 RLU.

What about the RLU ([4]; dilution of ADBAC in ATP extract ½) of the same compound?
The RLU was 209 RLU.

And the RLU ([4]; dilution of ADBAC in ATP extract ⅛)?
The RLU was 6064 RLU.

And the “Luciferase Activity (% of activity in the absence of ADBAC)” value ([5]; dilution 1/16, 1000 mg/L ADBAC stock in phosphate buffer)?
The value was 100%.

And the “Luciferase Activity (% of activity in the absence of ADBAC)” value ([5]; dilution None, 1000 mg/L ADBAC in phosphate buffer)?
Its value is 0.01%.

What about the “Luciferase Activity (% of activity in the absence of ADBAC)” value ([5]; dilution ¼, 1000 mg/L ADBAC stock in phosphate buffer) of the same compound?
Its value is 33%.

And the “Luciferase Activity (% of activity in the absence of ADBAC)” value ([5]; dilution ½, 1000 mg/L ADBAC stock in phosphate buffer)?
The value was 6.7%.

And the “Luciferase Activity (% of activity in the absence of ADBAC)” value ([5]; dilution ⅛, 1000 mg/L ADBAC stock in phosphate buffer)?
The value was 100%.
